Consider 2 compounds from US4960698A, “Process for producing L-654,040, antibacterial agent” (Merck & Co., Inc., priority 1989, dated 1990).

One data set deals with Eubcterium limosum 3344. Kind of data set: agar dilution MIC, anaerobic, Wilkens-Chalgren agar. As to conditions: 10^6 cfu/spot, 35° C., 48 hours. In kind it is cell-based. On the procedure: (a) Wilkens-Chalgren agar was used instead of antagonist-free medium (Roche);
(b) The inoculum/spot was about 10^6 instead of about 10^4 ;
(c) The incubation period was for 48 hours, not 24 hours; and
(d) Incubations were performed under anaerobic conditions.
*Agar dilution assay, multipoint inoculator, WilkensChalgren agar,
inoculum 10^6 cfu/spot, incubation at 35° C. for 48 hours.
A general note: In agar dilution the substance is mixed into plates at graded concentrations.

Another data set has as its system E. coli DC2 4353. Briefly: agar dilution MIC, antagonist-free medium (Roche). The conditions noted are these: E. coli permeability mutant, Table II.
The test system of another data set is Pasteurella multocida. Briefly: combined therapy with erythromycin in infected mice. As to conditions: intraperitoneal, vs erythromycin alone.
In another data set the test system is numerous microorganisms. Kind of data set: in vitro antibacterial potency (general statement). In kind it is cell-based.
Data set [1] deals with Bordetella bronchiseptica (3771). Briefly: protection and survival of infected mice. As to conditions: intraperitoneal, 160 mg/kg ×2.
A short description of the next data set: solubility in water. The conditions noted are these: water solutions for injection.
For data set [2] the following is noted: mouse, in vivo.
The subject of data set [3] is Pasteurella multocida (4678). Kind of data set: protection and survival of infected mice. The conditions noted are these: intraperitoneal; for survival time: 160 mg/kg ×2.
In a further data set the test system is Staph. aureus 2865. Kind of data set: agar dilution MIC, antagonist-free medium (Roche). As to conditions: Table II.

The structures appear in SMILES notation. Values after ≈ are worked out from the molar mass of the structure shown. “Also recorded” adds a separate entry of the source.

Usually MIC stands for the smallest concentration in the dilution series that meets the test's criterion for growth inhibition. A higher MIC goes with a need for much substance.

As for `CO[C@@]1(NC(=O)Cc2cccs2)C(=O)N2C(C(=O)O)=C(COC(N)=O)CS[C@@H]21` [CEFOXITIN, Cefoxitin, reference compound], it took 1 µg/mL (≈ 2.34 µM) to inhibit growth in the data set with Eubcterium limosum 3344 (MIC).

Compound `C[C@H](CNC(=O)[C@H]1N=C(c2cccc(O)c2O)O[C@@H]1C)C(=O)N[C@@H]1CCCN(O)C1=O` [L-654,040] yielded an MIC against Eubcterium limosum 3344 of 128 µg/mL (≈ 295 µM). The sensitivity of strain entry in the data set on E. coli DC2 4353 and in the data set with Staph. aureus 2865 was “sensitive” in each case. Further, the “efficacy of combined therapy with erythromycin” value in the data set on Pasteurella multocida is recorded as “slightly more effective than erythromycin alone but not to a degree considered to be synergistic”. The potency in vitro result in the data set with numerous microorganisms is listed as “showing potency in vitro against numerous microorganisms”. Further, the survival time entry in [1] (160 mg/kg) was “prolongation of survival time was observed”; in data set [1] (listed as L-654.040, 160 mg/kg), “did prolong the survival time”; in data set [3] (160 mg/kg), “prolongation of survival time was observed; also recorded: increases survival time”; in [3] (listed as L-654.040, 160 mg/kg), “did prolong the survival time”. The “solubility in water (in words)” value in the data set “solubility in water” is reported as “limited solubility”. In [2], the “tolerability in uninfected mice” value was “tolerated by uninfected mice”. In addition, the “statistical significance of prolonged survival (in words)” value in data set [3] is “statistically significant at one level in two Pasteurella tests”.
